How the values were obtained:
[1] = Protein binding assay (HT dialysis), rat plasma; type: in vitro ADME; details: pH 7.4, Mean ± SEM, n = 3, read-out: Fu Plasma
Procedure: (§1) Unbound fractions of test compounds in plasma, brain homogenate and liver microsomes were determined using high-throughput dialysis (HT dialysis). Briefly, dialysis membranes were soaked in deionized water for 20 minutes and then in deionized water with 30% ethanol for 15 minutes and finally in phosphate buffer until use. Membranes were rinsed in phosphate buffer before assembling. The membranes were layered between teflon bars of dialysis assembly. Stock solutions of test compound/comparative compound were prepared at 10 mM in DMSO, diluted to 1 mM in acetonitrile and further diluted to 100 μM in mixture of water and acetonitrile (1:1 v/v). Human plasma (pool of 3) was prepared from human blood (3 donors) by centrifuging at 4000 rpm for 10 min at 4° C. Rat and dog blood were obtained on the day of the study and centrifuged to obtain plasma. Rat brains were isolated, cleaned and homogenized with 2 volumes of buffer (3 fold dilution). Liver microsomes were prepared at 0.5 mg/mL in phosphate buffer (100 mM, pH 7.4). The dialysate chambers were loaded with 150 μL of 100 mM phosphate buffer (pH 7.4) in triplicates. The matrix chambers were loaded with 150 μL of the plasma or brain homogenate or microsomal suspension spiked with test compound/comparative compound at a final concentration of 1 μM. 50 μL of the sample was removed from both the chambers at 0 h. The plate was sealed and incubated at 37° C. for 6 h at 100 rpm. After 6 h, 50 μL of the sample was removed from both the chambers. Equal volumes of buffer or human plasma/microsomal suspension were added to the plasma/microsomal and buffer samples respectively to create identical sample matrices for analysis. The samples were precipitated with 150 μL of acetonitrile containing fluoxetine as an internal standard. All the samples were centrifuged at 10000 rpm for 10 minutes at 4° C.

[2] = Protein binding assay (HT dialysis), rat liver microsomes; type: in vitro ADME; details: pH 7.4, Rat liver microsomes 0.5 mg/mL, Mean ± SEM, n = 3, read-out: Fu Microsomes
Procedure: as §1

[3] = Protein binding assay (HT dialysis), human plasma; type: in vitro ADME; details: pH 7.4, Mean ± SEM, n = 3, read-out: Fu Plasma (converted)
Procedure: as §1

[4] = Protein binding assay (HT dialysis), human liver microsomes; type: in vitro ADME; details: pH 7.4, Human liver microsomes 0.5 mg/mL, Mean ± SEM, n = 3, read-out: Fu Microsomes (converted)
Procedure: as §1

[5] = Protein binding assay (HT dialysis), dog liver microsomes; type: in vitro ADME; details: pH 7.4, Dog liver microsomes 0.5 mg/mL, Mean ± SEM, n = 3, read-out: Fu Microsomes (converted)
Procedure: as §1

[6] = Protein binding assay (HT dialysis), dog plasma; type: in vitro ADME; details: pH 7.4, Mean ± SEM, n = 3, read-out: Fu Plasma (converted)
Procedure: as §1

[7] = Protein binding assay (HT dialysis), rat brain homogenate; type: in vitro ADME; details: pH 7.4, Mean ± SEM, n = 3, read-out: Fu Brain
Procedure: as §1

[8] = biological target: T1, human Muscarinic M1 receptor (Homo sapiens, UniProt P11229); assay: Allosteric potency EC50 for muscarinic M1 receptor, CHO pCRE-Luc reporter cell assay; type: cell-based; details: in presence of EC20 of acetylcholine; CHO cells, luciferase reporter, 4 h
T1 sequence (P11229 1-460): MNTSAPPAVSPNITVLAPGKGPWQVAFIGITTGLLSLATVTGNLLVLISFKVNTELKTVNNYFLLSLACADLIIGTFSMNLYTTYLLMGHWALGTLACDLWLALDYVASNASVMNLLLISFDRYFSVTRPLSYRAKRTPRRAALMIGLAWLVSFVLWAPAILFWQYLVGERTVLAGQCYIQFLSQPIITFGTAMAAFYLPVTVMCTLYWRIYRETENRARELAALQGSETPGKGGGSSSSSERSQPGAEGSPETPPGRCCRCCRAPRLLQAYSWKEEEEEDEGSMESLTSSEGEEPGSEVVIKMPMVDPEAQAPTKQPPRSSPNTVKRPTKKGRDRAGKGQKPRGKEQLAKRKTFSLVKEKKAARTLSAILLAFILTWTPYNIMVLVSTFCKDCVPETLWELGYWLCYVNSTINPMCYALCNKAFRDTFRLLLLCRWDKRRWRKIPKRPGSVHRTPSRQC
Procedure: A stable CHO cell line expressing recombinant human Muscarinic M1 receptor and pCRE-Luc reporter system was used for cell-based assay. The assay offers a non-radioactive based approach to determine binding of a compound to GPCRs. In this specific assay, the level of intracellular cyclic AMP which is modulated by activation or inhibition of the receptor is measured. The recombinant cells harbor luciferase reporter gene under the control of cAMP response element.
The above cells were grown in 96 well clear bottom white plates in Hams F12 medium containing 10% fetal bovine serum (FBS). Prior to the addition of compounds or standard agonist, cells were serum starved overnight. Increasing concentrations of test compounds were added along with EC20 of acetylcholine in OptiMEM medium to the cells. The incubation was continued at 37° C. in CO2 incubator for 4 h. Medium was removed and cells were washed with phosphate buffered saline. The cells were lysed and luciferase activity was measured in a Luminometer. Luminescence units were plotted against the compound concentrations using Graphpad software. EC50 values of the compounds were defined as the concentration required in stimulating the luciferase activity by 50% in presence of EC20 of acetylcholine.

[9] = Rodent brain penetration study; type: in vivo, Male Wistar rats; details: male, Wistar, brain/plasma, po; rat, 3 mg/kg, p.o. @ 1.0 hr; read-out: Single dose Rat Brain Penetration (Cb/Cp)
Procedure: Male Wistar rats (260±40 grams) were used as experimental animals. Three animals were housed in each cage. Animals were given water and food ad libitum throughout the experiment and maintained on a 12 h light/dark cycle.
Brain penetration was determined in discrete manner in rats. One day prior to dosing day, male Wistar rats were acclimatized and randomly grouped according to their weight. At each time point (0.5, 1 and 2 h) n=3 animals were used.
The test compounds were suitably preformulated and administered orally at (free base equivalent) 3 mg/kg. Blood samples were removed via cardiac puncture by using isoflurane anesthesia. The animals were sacrificed to collect brain tissue. Plasma was separated and brain samples were homogenized and stored frozen at −20° C. until analysis. The concentrations of the test compounds in plasma and brain were determined using LC-MS/MS method.
The test compounds were quantified in plasma and brain homogenate by qualified LC-MS/MS method using suitable extraction technique. The test compounds were quantified in the calibration range of 1-500 ng/mL in plasma and brain homogenate. Study samples were analyzed using calibration samples in the batch and quality control samples spread across the batch.

[10] = Rodent pharmacokinetic study; type: in vivo, Male Wistar rats; details: rat
Procedure: Male Wistar rats (260±50 grams) were used as experimental animals. Animals were housed individually in polypropylene cage. Two days prior to study, male Wistar rats were anesthetized with isoflurane for surgical placement of jugular vein catheter. Rats were randomly divided for oral (3 mg/kg) and intravenous (i.v) (1 mg/kg) dosing (n=3/group) and fasted overnight before oral dosing (p.o.). However, rats allocated to intravenous (i.v.) dosing food and water was provided ad libitum.
At pre-determined point, blood was collected through jugular vein and replenished with an equivalent volume of normal saline. Collected blood was transferred into a labeled eppendorf tube containing 10 μL of heparin as an anticoagulant. Typically blood samples were collected at following time points: 0.08, 0.25, 0.5, 1, 2, 4, 6, 8, and 24 h post dose. Blood was centrifuged at 4000 rpm for 10 minutes. Plasma was separated and stored frozen at −80° C. until analysis. The concentrations of the test compounds were quantified in plasma by qualified LC-MS/MS method using suitable extraction technique. The test compounds were quantified in the calibration range around 1-1000 ng/mL in plasma. Study samples were analyzed using calibration samples in the batch and quality control samples spread across the batch.
Pharmacokinetic parameters Cmax, AUCt, T1/2, clearance and bioavailability (F) were calculated by non-compartmental model using standard non-compartmental model by using Phoenix WinNonlin 6.0.2 or 6.0.3 version Software package and the results are tabulated below.

[11] = male, Wistar, plasma, iv, i.v. 1 mg/kg
[12] = male, Wistar, plasma, oral 3 mg/kg

COc1ccc(Cc2cc3c(cc2C)CN([C@H]2CCCC[C@@H]2O)C3=O)cc1 [Comparative compound, reference compound]
fraction unbound at 6 h, 1 μM [1]: 0.0141 ± 0.003
fraction unbound at 6 h, 1 μM [2]: 0.551 ± 0.013
fraction unbound at 6 h, 1 μM [3]: 0.0063
fraction unbound at 6 h, 1 μM [4]: 0.48
fraction unbound at 6 h, 1 μM [5]: 0.709
fraction unbound at 6 h, 1 μM [6]: 0.0069
fraction unbound at 6 h, 1 μM [7]: 0.0022 ± 0.001

Cc1nc2c(cc1Cc1ccc(-c3cnn(C)c3)nc1)C(=O)N([C@H]1CCCC[C@@H]1O)C2 [Example 2, 6-(1S,2S-2-Hydroxycyclohexyl)-2-methyl-3-[2-(1-methyl-1H-pyrazol-4-yl)pyridin-5-ylmethyl]-6,7-dihydropyrrolo[3,4-b]pyridin-5-one]
EC50 [8]: 288 nM

Cc1nc2c(cc1Cc1ccc(-c3cscn3)cc1)C(=O)N([C@H]1CCCC[C@@H]1O)C2 [Example 4, 6-(1S,2S-2-Hydroxycyclohexyl)-2-methyl-3-(4-thiazol-4-ylbenzyl)-6,7-dihydropyrrolo[3,4-b]pyridin-5-one]
EC50 [8]: 107 nM

Cc1nc2c(cc1Cc1ccc(F)cc1)C(=O)N([C@H]1CCCC[C@@H]1O)C2 [Example 9, 6-(1S,2S-2-Hydroxycyclohexyl)-2-methyl-3-(4-fluorobenzyl)-6,7-dihydropyrrolo[3,4-b]pyridin-5-one]
Kp at 1 h [9]: 0.25 ± 0.04
AUC(0-t) [10, 11]: 1220 ± 25 ng·h/mL
clearance [10, 11]: 13.5 ± 0.3 mL/min/kg
half-life [10, 11]: 1.3 ± 0.3 h
AUC(0-t) [10, 12]: 1290 ± 387 ng·h/mL
Cmax [10, 12]: 592 ± 142 ng/mL
half-life [10, 12]: 1.1 ± 0.4 h
F ([10]; oral 3 mg/kg vs i.v. 1 mg/kg): 35 ± 11%
EC50 [8]: 1500 nM

Cc1nc2c(cc1Cc1cccc(F)c1)C(=O)N([C@H]1CCCC[C@@H]1O)C2 [Example 10, 6-(1S,2S-2-Hydroxycyclohexyl)-2-methyl-3-(3-fluorobenzyl)-6,7-dihydropyrrolo[3,4-b]pyridin-5-one]
EC50 [8]: 2780 nM

COc1ccc(Cc2cc3c(nc2C)CN(C2COCCC2O)C3=O)cc1 (centres unmarked) [Example 13, 6-(4-Hydroxytetrahydropyran-3-yl)-3-(4-methoxybenzyl)-2-methyl-6,7-dihydropyrrolo[3,4-b]pyridin-5-one]
EC50 [8]: 669 nM

COc1ccc(Cc2cc3c(nc2C)CCN([C@H]2CCCC[C@@H]2O)C3=O)cc1 [Example 14, 6-(1S,2S-2-Hydroxycyclohexyl)-2-methyl-3-(4-methoxybenzyl)-7,8-dihydro-6H-[1,6]naphthyridin-5-one]
EC50 [8]: 643 nM

Cc1nc(-c2ccc(Cc3cc4c(nc3C)CN(C3CCOCC3)C4=O)cc2)co1 [Example 16, 6-(Tetrahydropyran-4-yl)-2-methyl-3-[4-(2-methyl-oxazol-4-yl)-benzyl]-6,7-dihydropyrrolo[3,4-b]pyridin-5-one]
EC50 [8]: 1320 nM

Cc1nc2c(cc1Cc1cccc(Cl)c1)C(=O)N([C@H]1CCCC[C@@H]1O)CC2 [Example 18, 6-(1S,2S-2-Hydroxycyclohexyl)-2-methyl-3-(3-chlorobenzyl)-7,8-dihydro-6H-[1,6]naphthyridin-5-one]
EC50 [8]: 774 nM

Cc1nc2c(cc1Cc1ccc(F)c(F)c1)C(=O)N([C@H]1CCCC[C@@H]1O)CC2 [Example 19, 6-(1S,2S-2-Hydroxycyclohexyl)-2-methyl-3-(3,4-difluorobenzyl)-7,8-dihydro-6H-[1,6]naphthyridin-5-one]
EC50 [8]: 972 nM

COc1cccc(Cc2cc3c(nc2C)CCN([C@H]2CCCC[C@@H]2O)C3=O)c1 [Example 24, 6-(1S,2S-2-Hydroxycyclohexyl)-2-methyl-3-(3-methoxybenzyl)-7,8-dihydro-6H-[1,6]naphthyridin-5-one]
EC50 [8]: 1210 nM

Cc1nc2c(cc1Cc1ccnc(F)c1)C(=O)N([C@H]1CCCC[C@@H]1O)C2 [Example 28, 6-(1S,2S-2-Hydroxycyclohexyl)-2-methyl-3-(2-fluoropyridin-4-ylmethyl)-6,7-dihydropyrrolo[3,4-b]pyridin-5-one]
EC50 [8]: 929 nM
